Reference: US20240041042A1, “1-(PYRIDYL)-5-AZINYLPYRAZOLE DERIVATIVES, AND THEIR USE FOR CONTROL OF UNDESIRED PLANT GROWTH” (Bayer Aktiengesellschaft, priority 2020, published 2024)
Read-outs that look alike come from different tables or passages of the source.

How the values were obtained:
Format in all cases: in vivo
Viola tricolor (VIOTR) [1] = assay: Post-emergence herbicidal action against VIOTR; settings: 320 g/ha
Procedure, shortened: (§1)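 Post-emergence greenhouse spray, one-leaf stage, 600 l/ha water plus 0.5% additive; WP or EC formulations; application rates 320 g/ha or lower. Visual % damage vs untreated controls at ~3 weeks.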

[2] = tested on: Amaranthus retroflexus (AMARE); assay: Pre-emergence herbicidal action against AMARE; settings: visual scoring after about 3 weeks vs untreated controls
Procedure, shortened: (§2)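 Pre-emergence soil-surface spray, WP/EC formulation, 0.5% additive, 600 l/ha water, rates of 320 g/ha or lower. Greenhouse, ~3 wk. Visual score, % of untreated control (100% = plants dead, 0% = like control).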

Lolium rigidum (LOLRI) [3] = assay: Pre-emergence herbicidal action against LOLRI; settings: dosage 320 g/ha
Procedure, shortened: as §2

[4] = tested on: Pharbitis purpurea (PHBPU); assay: Post-emergence herbicidal action against PHBPU
Procedure, shortened: as §1

[5] = tested on: Amaranthus retroflexus (AMARE); assay: Post-emergence herbicidal action against AMARE
Procedure, shortened: as §1

[6] = tested on: Polygonum convolvulus (POLCO); assay: Post-emergence herbicidal action against POLCO; settings: dosage 320 g/ha
Procedure, shortened: as §1

[7] = tested on: Alopecurus myosuroides (ALOMY); assay: Pre-emergence herbicidal action against ALOMY; settings: 320 g/ha; scored visually after about 3 weeks; 100% = plants have died
Procedure, shortened: as §2

[8] = tested on: Digitaria sanguinalis (DIGSA); assay: Pre-emergence herbicidal action against DIGSA; settings: dosage 320 g/ha
Procedure, shortened: as §2

Avena fatua (AVEFA) [9] = assay: Post-emergence herbicidal action against AVEFA; settings: 320 g/ha, visual rating about 3 weeks after treatment
Procedure, shortened: as §1

Oryza sativa (ORYSA) [10] = settings: crop plant compatibility, 80 g/ha, effect in comparison to untreated controls
Procedure, shortened: (§3)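 Test crops were treated 2 to 3 weeks after sowing, once they reached one leaf, by spraying compound in water with 0.5% additive at 600 l/ha. Visual scoring compared them with untreated controls roughly 3 weeks on, and appendices a, b and c denote different doses.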

Zea mays (ZEAMX) [11] = settings: pre-emergence, crop plant compatibility, in comparison to untreated controls
Procedure, shortened: (§4)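 Crop injury rated visually in percent against untreated plants roughly 3 weeks after treatment (0% no effect, 100% plants dead). Compounds, as WP or EC with 0.5% additive in 600 l/ha water, were applied to the covering soil right after sowing; greenhouse growth. Suffixes a, b, c denote different dosages.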

Brassica napus (BRSNW) = settings: 80 g/ha, crop plant compatibility, in comparison to untreated controls
Procedure, shortened: as §4

Viola tricolor (VIOTR) [12] = assay: Pre-emergence herbicidal action against VIOTR; settings: 320 g/ha, Viola tricolor
Procedure, shortened: as §2

[13] = tested on: Alopecurus myosuroides (ALOMY); assay: Post-emergence herbicidal action against ALOMY; settings: 320 g/ha, visual rating about 3 weeks after treatment vs untreated controls (100% = plants have died, 0% = like control plants)
Procedure, shortened: as §1

[14] = tested on: Echinochloa crus-galli (ECHCG); assay: Pre-emergence herbicidal action against ECHCG; settings: dosage 320 g/ha
Procedure, shortened: as §2

[15] = tested on: Polygonum convolvulus (POLCO); assay: Pre-emergence herbicidal action against POLCO
Procedure, shortened: as §2

Avena fatua (AVEFA) [16] = assay: Pre-emergence herbicidal action against AVEFA; settings: 320 g/ha, visual scoring after about 3 weeks vs untreated controls
Procedure, shortened: as §2

Lolium rigidum (LOLRI) [17] = assay: Post-emergence herbicidal action against LOLRI; settings: dosage 320 g/ha
Procedure, shortened: as §1

Zea mays (ZEAMX) [18] = settings: crop plant compatibility, 80 g/ha, effect vs untreated controls
Procedure, shortened: as §3

[19] = tested on: Triticum aestivum (TRZAS); settings: crop plant compatibility, effect vs untreated controls
Procedure, shortened: as §3

Oryza sativa (ORYSA) [20] = settings: pre-emergence, 80 g/ha, crop plant compatibility, in comparison to untreated controls
Procedure, shortened: as §4

[21] = tested on: Matricaria inodora (MATIN); assay: Pre-emergence herbicidal action against MATIN
Procedure, shortened: as §2

[22] = tested on: Echinochloa crus-galli (ECHCG); assay: Post-emergence herbicidal action against ECHCG
Procedure, shortened: as §1

Setaria viridis (SETVI) [23] = assay: Post-emergence herbicidal action against SETVI; settings: dosage 320 g/ha
Procedure, shortened: as §1

[24] = tested on: Verconica persica (VERPE); assay: Pre-emergence herbicidal action against VERPE; settings: dosage 320 g/ha
Procedure, shortened: as §2

[25] = tested on: Verconica persica (VERPE); assay: Post-emergence herbicidal action against VERPE; settings: 320 g/ha, VERPE
Procedure, shortened: as §1

Setaria viridis (SETVI) [26] = assay: Pre-emergence herbicidal action against SETVI; settings: dosage 320 g/ha
Procedure, shortened: as §2

[27] = 320 g/ha, visual rating about 3 weeks after treatment
[28] = 80 g/ha, visual rating about 3 weeks after treatment vs untreated controls (100% = plants have died, 0% = like control plants)

| SMILES | Pre-emergence action against AMARE in % ([2]; 320 g/ha) [%] | Post-emergence action against PHBPU in % ([4]; dosage 320 g/ha) [%] | Post-emergence action against AMARE in % [5, 27] [%] | Post-emergence action against POLCO in % [6] [%] | Pre-emergence action against ALOMY [7] [%] | Post-emergence action against ORYSA in % (Oryza sativa (ORYSA) [10]) [%] | Pre-emergence action against ZEAMX in % (Zea mays (ZEAMX) [11]; 80 g/ha) [%] | Pre-emergence action against BRSNW in % (Brassica napus (BRSNW)) [%] | Post-emergence action against AMARE in % [5, 28] [%] | Post-emergence action against ZEAMX in % (Zea mays (ZEAMX) [18]) [%] | Post-emergence action against TRZAS in % ([19]; 80 g/ha) [%] | Pre-emergence action against MATIN in % ([21]; dosage 320 g/ha) [%] | Post-emergence action against ECHCG in % ([22]; dosage 320 g/ha) [%] | Post-emergence action against SETVI in % (Setaria viridis (SETVI) [23]) [%] | Pre-emergence action against VERPE in % [24] [%] | Post-emergence action against VERPE in % [25] [%] | Pre-emergence action against SETVI in % (Setaria viridis (SETVI) [26]) [%] | other results |
| --- | --- | --- | --- | --- | --- | --- | --- | --- | --- | --- | --- | --- | --- | --- | --- | --- | --- | --- |
| COC(=O)CCOC(=O)[C@@H](C)Oc1nn(-c2ccccn2)c(-c2ccc(Cl)nc2)c1Cl [Example I-245] | 80 | 90 | 80 | 80 | 90 | 0 | 0 | 0 |  |  |  |  |  |  |  |  |  | Post-emergence action against VIOTR in % (Viola tricolor (VIOTR) [1]): 80%; Pre-emergence action against LOLRI in % (Lolium rigidum (LOLRI) [3]): 90%; Post-emergence action against PHBPU in % ([4]; dosage 80 g/ha): 80%; Pre-emergence action against DIGSA in % [8]: 90%; Post-emergence action against AVEFA in % (Avena fatua (AVEFA) [9]): 80%; Pre-emergence action against VIOTR in % (Viola tricolor (VIOTR) [12]): 80%; Post-emergence action against ALOMY in % [13]: 80% |
| Cc1cccc(-n2nc(OCC(=O)O)c(Cl)c2-c2ccc(F)nc2)n1 [Example I-351] | 80 | 80 | 80 | 80 |  | 0 |  | 20 | 80 | 10 | 0 | 80 | 80 | 80 | 80 | 80 | 100 | Pre-emergence action against ECHCG in % [14]: 90%; Pre-emergence action against POLCO in % ([15]; dosage 80 g/ha): 80%; Pre-emergence action against POLCO in % ([15]; dosage 320 g/ha): 80%; Pre-emergence action against AVEFA in % (Avena fatua (AVEFA) [16]): 80%; Post-emergence action against LOLRI in % (Lolium rigidum (LOLRI) [17]): 80%; Post-emergence action against TRZAS in % ([19]; 320 g/ha): 10%; Pre-emergence action against ORYSA in % (Oryza sativa (ORYSA) [20]): 20% |
| COC(=O)CNC(=O)COc1nn(-c2ccccn2)c(-c2ccc(F)nc2)c1F [Example I-377] | 90 | 90 | 90 | 80 | 80 | 0 | 0 | 0 | 80 | 0 | 0 | 90 | 90 | 90 | 80 | 80 | 90 | Pre-emergence action against AMARE in % ([2]; 80 g/ha): 80%; Pre-emergence action against ZEAMX in % (Zea mays (ZEAMX) [11]; 320 g/ha): 0%; Pre-emergence action against MATIN in % ([21]; dosage 80 g/ha): 80%; Post-emergence action against ECHCG in % ([22]; dosage 80 g/ha): 80% |
